Test results published in patent publication US10988477B2 (Merck Patent GmbH, priority 2018, dated 2021).

Legend:
GCN2 kinase = GCN2 kinase (Homo sapiens, UniProt Q9P2K8); test: GCN2 enzyme inhibition assay (Transcreener ADP2 fluorescence polarization); type: biochemical; conditions: 280 μM ATP
How it was run: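 ADP formation read by Transcreener FP after a 1 h, 25 °C kinase reaction containing 280 μM ATP, 200 μM (RS)7 substrate and 4 nM GCN2, pH 7.5 Tris buffer. Compounds (0–8 μM final) were added 10 min before ATP. Percent inhibition gave IC50 and apparent Ki via tight-binding fit.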

[1] = target: intracellular GCN2 (phosphorylation of the GCN2 substrate eIF2α) (Homo sapiens, UniProt Q9P2K8); test: GCN2 cellular inhibition assay (AlphaScreen SureFire P-eIF2α Ser51, borrelidin-treated U2OS cells); type: cell-based; conditions: biomarker assay, phosphorylated eIF2α Ser51 in borrelidin-treated U2OS cells
intracellular GCN2 (phosphorylation of the GCN2 substrate eIF2α), sequence (Q9P2K8 whole entry): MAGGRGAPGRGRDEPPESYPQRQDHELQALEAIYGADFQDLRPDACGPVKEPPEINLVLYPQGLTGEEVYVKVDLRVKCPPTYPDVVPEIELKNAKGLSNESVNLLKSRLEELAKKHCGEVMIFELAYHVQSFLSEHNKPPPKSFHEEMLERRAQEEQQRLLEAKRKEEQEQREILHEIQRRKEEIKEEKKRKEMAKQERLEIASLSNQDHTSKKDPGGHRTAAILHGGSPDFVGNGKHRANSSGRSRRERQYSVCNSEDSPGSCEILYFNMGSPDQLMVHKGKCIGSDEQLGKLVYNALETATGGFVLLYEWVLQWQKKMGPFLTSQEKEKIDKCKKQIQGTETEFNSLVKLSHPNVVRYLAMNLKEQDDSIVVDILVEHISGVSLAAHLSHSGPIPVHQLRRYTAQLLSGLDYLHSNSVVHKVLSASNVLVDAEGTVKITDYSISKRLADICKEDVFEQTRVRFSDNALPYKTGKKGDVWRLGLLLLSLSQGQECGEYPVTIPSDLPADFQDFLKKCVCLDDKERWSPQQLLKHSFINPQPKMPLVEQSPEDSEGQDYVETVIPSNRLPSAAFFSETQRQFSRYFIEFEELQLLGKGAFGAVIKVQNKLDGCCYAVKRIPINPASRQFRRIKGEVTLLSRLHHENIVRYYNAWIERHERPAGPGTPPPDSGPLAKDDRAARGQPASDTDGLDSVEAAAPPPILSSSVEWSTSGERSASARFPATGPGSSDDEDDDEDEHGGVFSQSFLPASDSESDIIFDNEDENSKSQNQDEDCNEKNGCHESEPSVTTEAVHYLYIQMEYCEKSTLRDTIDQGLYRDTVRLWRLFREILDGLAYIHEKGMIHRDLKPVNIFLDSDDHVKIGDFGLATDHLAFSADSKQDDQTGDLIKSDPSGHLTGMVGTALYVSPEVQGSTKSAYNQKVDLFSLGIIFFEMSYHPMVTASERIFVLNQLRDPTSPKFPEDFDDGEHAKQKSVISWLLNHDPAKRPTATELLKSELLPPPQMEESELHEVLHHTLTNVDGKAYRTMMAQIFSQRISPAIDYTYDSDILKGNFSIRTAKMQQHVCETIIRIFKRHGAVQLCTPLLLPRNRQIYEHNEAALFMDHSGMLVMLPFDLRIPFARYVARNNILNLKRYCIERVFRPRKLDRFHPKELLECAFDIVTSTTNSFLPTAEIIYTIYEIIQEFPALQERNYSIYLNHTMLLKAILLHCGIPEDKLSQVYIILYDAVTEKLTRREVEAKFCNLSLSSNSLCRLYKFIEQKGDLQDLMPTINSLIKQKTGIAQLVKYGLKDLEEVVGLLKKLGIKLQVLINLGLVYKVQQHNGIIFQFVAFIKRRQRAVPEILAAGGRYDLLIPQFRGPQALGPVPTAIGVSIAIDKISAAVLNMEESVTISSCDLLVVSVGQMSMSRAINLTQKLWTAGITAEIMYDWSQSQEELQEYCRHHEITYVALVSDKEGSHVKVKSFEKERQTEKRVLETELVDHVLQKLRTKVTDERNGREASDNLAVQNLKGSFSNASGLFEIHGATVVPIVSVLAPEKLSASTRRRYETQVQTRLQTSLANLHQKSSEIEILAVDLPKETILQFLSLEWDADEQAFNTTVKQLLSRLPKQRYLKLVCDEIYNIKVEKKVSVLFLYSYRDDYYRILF
How it was run: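 First, U2OS cells are plated and left overnight at 37 °C. Next, compounds (from 40 μM final, 4-fold steps) and 10 μM borrelidin are added for 1 h, cells lysed, and phospho-Ser51 eIF2α detected by AlphaScreen bead sandwich. Inhibition is computed versus borrelidin-only wells.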

[2] = compounds of Formula II, 4 nM GCN2 kinase
[3] = Enzyme activity for compounds of Formula IV, Ki(app), 25° C.

GCN2 kinase, sequence (Q9P2K8 whole entry): as above

Ki (GCN2 kinase; [2]) [nM]	IC50 ([1]; compounds of Formula II) [µM]	Ki (GCN2 kinase; [3]) [nM]	IC50 ([1]; compounds of Formula IV) [µM]	Structure (SMILES)
		100 to 1000	> 5	O=C1NCCC12CCN(c1ccnc(-c3cnc4cnc(C(F)F)cn34)n1)C2 (centres unmarked) [IV-69, 7-(2-(6-(Difluoromethyl)imidazo[1,2-a]pyrazin-3-yl)pyrimidin-4-yl)-2,7-di azaspiro[4.4]nonan-1-one]
		10 to 100	0.5 to 5	CC(C)(O)C1CC(c2cn[nH]c2)CN(c2ccnc(-c3cnc4cnc(C(F)(F)F)cn34)n2)C1 (single isomer, unassigned) [IV-682, 2-(5-(1H-Pyrazol-4-yl)-1-(2-(6-(trifluoromethyl)imidazo[1,2-a]pyrazin-3-yl)pyrimidin-4-yl)piperidin-3-yl)propan-2-ol]
		10 to 100	> 5	FC(F)(F)c1cn2c(-c3nccc(N4CCC(C5CCOC5)C4)n3)cnc2cn1 (centres unmarked) [IV-580, 3-(4-(3-(Tetrahydrofuran-3-yl)pyrrolidin-1-yl)pyrimidin-2-yl)-6-(trifluoromethyl)imidazo[1,2-a]pyrazine]
		10 to 100	0.5 to 5	Cc1n[nH]cc1C1=CCCN(c2ccnc(-c3cnc4cnc(C(F)F)cn34)n2)C1 [IV-96, 6-(Difluoromethyl)-3-(4-(5-(3-methyl-1H-pyrazol-4-yl)-3,6-dihydropyridin-1 (2H)-yl)pyrimidin-2-yl)imidazo[1,2-a]pyrazine]
		100 to 1000	0.5 to 5	CC1CN(c2ccnc(-c3cnc4cnc(Br)cn34)n2)C(C)C(c2c[nH]cn2)N1 (single isomer, unassigned) [IV-377, 3-(4-(3-(1H-Imidazol-4-yl)-2,5-dimethylpiperazin-1-yl)pyrimidin-2-yl)-6-bromoimidazo[1,2-a]pyrazine]
		100 to 1000	> 5	NS(=O)(=O)NCC1CCCN(c2ccnc(-c3cnc4cnc(C(F)F)cn34)n2)C1 (centres unmarked) [IV-74, 6-(Difluoromethyl)-3-[4-[3-[(sulfamoylamino)methyl]-1-piperidyl]pyrimidin-2-yl]imidazo[1,2-a]pyrazine]
		100 to 1000	> 5	CS(C)(=O)=N[C@@H]1C[C@@H](c2cn[nH]c2)CN(c2ccnc(-c3cnc4cnc(C(F)(F)F)cn34)n2)C1 (racemic) [IV-394]
		100 to 1000	> 5	FC(F)c1cn2c(-c3nccc(N4CCC(c5c[nH]cn5)C4)n3)cnc2cn1 (centres unmarked) [IV-67, 3-(4-(3-(1H-Imidazol-4-yl)pyrrolidin-1-yl)pyrimidin-2-yl)-6-(difluoromethyl)imidazo[1,2-a]pyrazine]
		100 to 1000	0.5 to 5	FC(F)(F)c1cn2c(-c3nccc(N4CCCC(c5ncco5)C4)n3)cnc2cn1 (centres unmarked) [IV-686, 2-(1-(2-(6-(Trifluoromethyl)imidazo[1,2-a]pyrazin-3-yl)pyrimidin-4-yl)piperidin-3-yl)oxazole]
		10 to 100	0.5 to 5	CS(=O)(=O)NCC1CCN(c2ccnc(-c3cnc4cnc(Br)cn34)n2)C1 (centres unmarked) [IV-27, N-((1-(2-(6-Bromoimidazo[1,2-a]pyrazin-3-yl)pyrimidin-4-yl)pyrrolidin-3-yl)methyl)methanesulfonamide]
		100 to 1000	> 5	CP(C)(=O)C1CC(c2cn[nH]c2)CN(c2ccnc(-c3cnc4cnc(C(F)(F)F)cn34)n2)C1 (centres unmarked) [IV-590, (5-(1H-Pyrazol-4-yl)-1-(2-(6-(trifluoromethyl)imidazo[1,2-a]pyrazin-3-yl)pyrimidin-4-yl)piperidin-3-yl)dimethylphosphine oxide]
		10 to 100	> 5	CC1C(c2cn[nH]c2)CCN1c1ccnc(-c2cnc3cnc(C(F)(F)F)cn23)n1 (centres unmarked) [IV-689, 3-(4-(2-Methyl-3-(1H-pyrazol-4-yl)pyrrolidin-1-yl)pyrimidin-2-yl)-6-(trifluoromethyl)imidazo[1,2-a]pyrazine]

Second part, the compound before the results:

Structure (SMILES)	Ki (GCN2 kinase; [2]) [nM]	IC50 ([1]; compounds of Formula II) [µM]	Ki (GCN2 kinase; [3]) [nM]	IC50 ([1]; compounds of Formula IV) [µM]
CS(=O)(=O)NCC1CN(c2cc(-c3cnc4ccc(C(F)F)nn34)ncn2)CC1O (centres unmarked) [II-152, N-((1-(6-(6-(Difluoromethyl)imidazo[1,2-b]pyridazin-3-yl)pyrimidin-4-yl)-4-hydroxypyrrolidin-3-yl)methyl)methanesulfonamide]	10 to 1000	> 5		
CC1C(CO)OCCN1c1cc(-c2cnc3ccc(C(F)F)nn23)ncn1 (centres unmarked) [II-341, (4-(6-(6-(Difluoromethyl)imidazo[1,2-b]pyridazin-3-yl)pyrimidin-4-yl)-3-methylmorpholin-2-yl)methanol]	10 to 1000	> 5		
CS(=O)(=O)NCC1CCCN(c2cc(-c3cnc4ccc(C(F)F)nn34)cnc2CN)C1 (centres unmarked) [II-73, N-((1-(2-(Aminomethyl)-5-(6-(difluoromethyl)imidazo[1,2-b]pyridazin-3-yl)pyridin-3-yl)piperidin-3-yl)methyl)methanesulfonamide]	10 to 1000	> 5		
O=S(=O)(NCC1CCCN(c2cc(-c3cnc4ccc(C(F)F)nn34)ncn2)C1)C1CC1 (centres unmarked) [II-262, N-((1-(6-(6-(Difluoromethyl)imidazo[1,2-b]pyridazin-3-yl)pyrimidin-4-yl)piperidin-3-yl)methyl)cyclopropanesulfonamide]	< 10	< 0.5		
CC1CN(c2cc(-c3cnc4ccc(C(F)F)nn34)ccn2)CC(CNS(C)(=O)=O)C1(F)F (centres unmarked) [II-57, N-((1-(4-(6-(Difluoromethyl)imidazo[1,2-b]pyridazin-3-yl)pyridin-2-yl)-4,4-difluoro-5-methylpiperidin-3-yl)methyl)methanesulfonamide]	< 10	0.5 to 5		
CNS(=O)(=O)NCC1CCCN(c2cc(-c3cnc4ccc(C(F)F)nn34)ncn2)C1 (centres unmarked) [II-385, 1-((1-(6-(6-(Difluoromethyl)imidazo[1,2-b]pyridazin-3-yl)pyrimidin-4-yl)piperidin-3-yl)methyl)-3-methylsulfuric diamide]	< 10	< 0.5		
CS(=O)(=O)NCC1CCCN(c2cc(-c3cnc4ccc(C(F)F)nn34)cc(O)n2)C1 (centres unmarked) [II-141, N-((1-(4-(6-(difluoromethyl)imidazo[1,2-b]pyridazin-3-yl)-6-oxo-1,6-dihydropyridin-2-yl)piperidin-3-yl)methyl)methanesulfonamide]	< 10	0.5 to 5		
FC(F)c1ccc2ncc(-c3cc(N4CCOC(c5cn[nH]c5)C4)ncn3)n2n1 (centres unmarked) [II-4, 4-(6-(6-(Difluoromethyl)imidazo[1,2-b]pyridazin-3-yl)pyrimidin-4-yl)-2-(1H-pyrazol-4-yl)morpholine]	10 to 1000	0.5 to 5		
CS(C)(=O)=NC1CCCN(c2cc(-c3cnc4ccc(C(F)(F)F)nn34)ncn2)C1 (centres unmarked) [II-407, Dimethyl((1-(6-(6-(trifluoromethyl)imidazo[1,2-b]pyridazin-3-yl)pyrimidin-4-yl)piperidin-3-yl)imino)-λ^6-sulfanone]	10 to 1000	> 5		
O=C(NCCO)N1CCC(c2cc(-c3cnc4ccc(C(F)F)nn34)ncn2)C1 (centres unmarked) [II-254, 3-(6-(6-(Difluoromethyl)imidazo[1,2-b]pyridazin-3-yl)pyrimidin-4-yl)-N-(2-hydroxyethyl)pyrrolidine-1-carboxamide]	10 to 1000	> 5		
CS(=O)(=O)N1CC2(CCCN(c3ccnc(-c4cnc5ccc(C(F)F)nn45)c3)C2)C1	< 10	< 0.5		
FC(F)c1ccc2ncc(-c3cc(N4CCOCC45CC5)ncn3)n2n1 [II-400, 4-(6-(6-(Difluoromethyl)imidazo[1,2-b]pyridazin-3-yl)pyrimidin-4-yl)-7-oxa-4-azaspiro[2.5]octane]	10 to 1000	> 5		
CS(=O)(=O)NC[C@@H]1CN(c2cc(-c3cnc4ccc(C(F)(F)F)nn34)ncn2)CCO1 [II-292, (S)—N-((4-(6-(6-(Trifluoromethyl)imidazo[1,2-b]pyridazin-3-yl)pyrimidin-4-yl)morpholin-2-yl)methyl)methanesulfonamide]	10 to 1000	0.5 to 5		
CS(=O)(=O)NCC1(O)CCN(c2cc(-c3cnc4ccc(C(F)F)nn34)ncn2)C1 (centres unmarked) [II-137, N-((1-(6-(6-(Difluoromethyl)imidazo[1,2-b]pyridazin-3-yl)pyrimidin-4-yl)-3-hydroxypyrrolidin-3-yl)methyl)methanesulfonamide]	10 to 1000	> 5		
CN1CCN(c2cc(-c3cnc4ccc(C(F)F)nn34)ncn2)C[C@H]1C1(O)CC1 [II-459, (S)-1-(4-(6-(6-(Difluoromethyl)imidazo[1,2-b]pyridazin-3-yl)pyrimidin-4-yl)-1-methylpiperazin-2-yl)cyclopropan-1-ol]	> 1000	> 5		
C[C@H]1[C@@H](CNS(C)(=O)=O)C(F)(F)[C@@H](C)CN1c1cc(-c2cnc3ccc(C(F)F)nn23)ncn1 (single isomer, unassigned) [II-472]	< 10	< 0.5		
CC1CC(CNS(C)(=O)=O)CN(c2cc(-c3cnc4ccc(C(F)F)nn34)ncn2)C1 (single isomer, unassigned) [II-437, N-((1-(6-(6-(Difluoromethyl)imidazo[1,2-b]pyridazin-3-yl)pyrimidin-4-yl)-5-methylpiperidin-3-yl)methyl)methanesulfonamide]	< 10	< 0.5		
CC1CC(P(C)(C)=O)CN(c2cc(-c3cnc4ccc(C(F)F)nn34)ncn2)C1 (centres unmarked) [II-710, 6-(Difluoromethyl)-3-[6-(3-dimethylphosphoryl-5-methyl-1-piperidyl)pyrimidin-4-yl]imidazo[1,2-b]pyridazine]	10 to 1000	0.5 to 5		
CC1C(CNS(C)(=O)=O)CC(F)(F)CN1c1cc(-c2cnc3ccc(C(F)F)nn23)ncn1 (centres unmarked) [II-329, N-((1-(6-(6-(Difluoromethyl)imidazo[1,2-b]pyridazin-3-yl)pyrimidin-4-yl)-5,5-difluoro-2-methylpiperidin-3-yl)methyl)methanesulfonamide]	< 10	< 0.5		
